{"source": "patent US20050059641A1", "about": "“Compositions and methods for treating and preventing cancer using analogs of vitamin D” (Aphios Corporation, priority 2003, published 2005)", "key": {"[1]": {"system": "keratinocytes (primary cells)", "experiment": "3H-thymidine incorporation assay, keratinocytes", "assay_type": "cell-based, human", "conditions": "10^−6M", "description": "(§1) It is well known that secretory epithelial cells are the main sites for the development of cancers of the breast, prostate and various other organs.\n(§2) In a study, investigators compared the growth-inhibitory effects of 25-OH-D3-3-BE and 1,25(OH)2D3 in several VDR-positive epithelial cells, e.g. keratinocytes (primary skin cells), MCF-7 cells (breast cancer cells), hormone-sensitive LNCaP and hormone-refractory PC3 cells (prostate cancer cells), and PZ-HPV-7 (papillovirus immortalized normal prostate cells) by using ^3H-thymidine incorporation assays (FIGS. 14-19)."}, "[2]": {"system": "MCF-7 cells (breast cancer cells)", "experiment": "3H-thymidine incorporation assay, MCF-7", "assay_type": "cell-based", "conditions": "10^−6M", "description": "as §1\nIt is well-established that the biological properties of 1,25(OH)2D3 and its analogs are mediated by their interaction with VDR.\nas §2"}, "[3]": {"system": "LNCaP cells (prostate cancer cells)", "experiment": "3H-thymidine incorporation assay, LNCaP", "assay_type": "cell-based, human", "conditions": "10^−6M", "experimental": "(§3) The inventors further studied the effect of 1,25(OH)2D3-3-BE on LNCAP cells (most closely resembling human hormone-sensitive prostate cancer) and PZ-HPV-7 cells (immortalized normal prostate cells). The cells were treated with ethanol or 10^−6M of either 1,25(OH)2D3 or 1,25(OH)2D3-3-BE for 16 hours and the effect on proliferation was determined by ^3H-thymidine incorporation assays as described earlier. The viable cell count was determined by Methylene blue assay. The Methylene blue assay is a simple colorimetric method that is widely used to determine the viable cell count.\nThe inventors studied dose-dependency of antiproliferation and cytotoxicity by 1,25(OH)2D3 or 1,25(OH)2D3-3-BE in LNCaP cells. The cells were treated with 10^−8-10^−6M of either 1,25(OH)2D3 or 1,25(OH)2D3-3-BE or ethanol (used as a control). The effect on proliferation and viable cell count were determined by using ^3H-thymidine incorporation and Methylene blue assay respectively. […]\nas §2"}, "[4]": {"system": "PC3 cells (prostate cancer cells)", "experiment": "3H-thymidine incorporation assay, PC3", "assay_type": "cell-based, human", "conditions": "PC-3 cells, 10^−6M", "description": "as §1, §2\nSince 25-OH-D3-3-BE contains an ester bond, its hydrolysis by esterases in growing cells would produce equimolar amounts of bromoacetic acid (BAA) and 25-OH-D3 (see, FIG. 21).\nFurthermore, fetal calf serum (FCS) contains many proteins, including vitamin D-binding protein, which potentially could absorb 25-OH-D3-3-BE before it reacts with VDR. Typically, the assays described herein were carried out in a media containing 10% FCS (after serum-depriving the cells for 15 hours)."}, "[5]": {"system": "PZ-HPV-7 (papillovirus immortalized normal prostate cells)", "experiment": "3H-thymidine incorporation assay, PZ-HPV-7", "assay_type": "cell-based", "conditions": "PZ-HPV-7 cells, 10^−6M", "experimental": "as §1, §3, §2"}, "[6]": {"experiment": "in vivo toxicity study in CD-1 mice", "parameters": "Serum Calcium on day 12: unit not given here", "conditions": "for Body Weight on Day 12 / Serum Calcium on day 12 / Body Weight On Day 0: CD-1 mice; for Body Weight On Day 0: beginning of the experiment", "description": "Investigators completed an in vivo study to determine the toxicity of 25-OH-D3-3-BE at various doses in CD-1 mice. The animals (average weight ˜30 gms) were maintained with normal chow and water ad libitum. […] At the end of the experiment the animals were lightly anesthetized and blood collected after decapitation for serum calcium-analysis. […] Frequency of administration, body weights at the beginning and at the end of the experiment and serum calcium values are given in the accompanying Table 1."}, "[7]": {"system": "prostate tumor induced with PC-3 cells", "experiment": "in vivo effect in mice bearing prostate tumor induced with PC-3 cells", "parameters": "species or system male SCID mice", "conditions": "SCID mice with PC-3 tumor", "experimental": "Sesame oil solutions (200 μl) of either 25-OH-D3 (10 μg) or 25-OH-D3-3-BE (13.2 μg, molar equivalent of 25-OH-D3) or vehicle were administered i.p. in alternate days for two weeks. […] At the end, mice were anesthetized, tumors were removed, and blood was collected. Tumors were embedded in paraffin and sections were made."}, "PC-3 cells": {"system": "PC-3 cells", "experiment": "DNA-fragmentation analysis", "assay_type": "cell-based, human", "conditions": "250 nM, 10 hours", "experimental": "(a) DNA-fragmentation analysis: PC-3 cells (2×10^6) were treated with 250 nM of 1,25(OH)2D3, 25-OH-D3 or 25-OH-D3-3-BE for 10 hours. The cells were harvested and lysed in 0.5 ml lysis buffer (20 mM Tris-HCl, 10 mM EDTA, 0.5% Triton X-100, pH 8.0), and DNA was extracted using phenol-chloroform procedure. The DNA was resuspended in 0.1 ml of 20 mM Tris-HCl, pH 8 and treated with Rnase, followed by electrophoresis on 1.2% agarose gel in TAE. The DNA was visualized under UV light after ethidinium bromide staining."}, "caspase-3": {"system": "caspase-3", "experiment": "Caspase Colorimetric assay, caspase-3", "assay_type": "cell-based", "conditions": "PC3 cells, 10 nM, 14 hours", "experimental": "(§4) Caspase-activity: There are several markers for apoptosis, and caspase activity is one of them; and their levels normally go up under apoptotic conditions. Investigators determined the levels of caspases 3, 8 and 9 by Caspase Colorimetric assay kits from R&D Systems (Minneapolis, Minn.) and used according to the manufacturer's instructions. Briefly, PC3 cells (1×10^6) were treated with 10 nM of 1,25(OH)2D3, 25-OH-D3 or 25-OH-D3-3-BE for 14 hours in culture medium (DMEM, 10% FBS and antibiotics). The cells were collected by centrifugation at 1000 RPM for 5 min. The cell pellet was lysed with lysis buffer, and the lysate was incubated on ice for 10 min. and centrifuged for 10,000 RPM for 5 min. Protein was estimated using Bradford protein estimation kit (BioRad). The enzymatic reactions were carried out in 96 well plate. For each reaction 100 μg lysate protein in 50 μl was incubated with 50 μl of 2×reaction buffer and 5 μl of caspase-3 or caspase-8 or caspase-9 calorimetric substrate for 2 h at 37° C. The absorbance was determined at 405 nm."}, "caspase-8": {"system": "caspase-8", "experiment": "Caspase Colorimetric assay, caspase-8", "assay_type": "cell-based", "conditions": "PC3 cells, 10 nM, 14 hours", "experimental": "as §4"}, "caspase-9": {"system": "caspase-9", "experiment": "Caspase Colorimetric assay, caspase-9", "assay_type": "cell-based", "conditions": "PC3 cells, 10 nM, 14 hours", "experimental": "as §4"}}}
{"smiles": "C=C1CCC(OC(=O)CBr)CC1=CC=C1CCCC2(C)C1CCC2C(C)CCCC(C)(C)O", "note": "(stereo not drawn) [25-OH-D3-3-BE, 25-hydroxyvitamin D3-3-bromoacetate]", "values": [{"measurement": "growth-inhibitory effect (3H-thymidine incorporation)", "setting": "[1]", "value": "antiproliferative"}, {"measurement": "lethal to the cells", "setting": "[1]", "value": "not"}, {"measurement": "growth-inhibitory effect (3H-thymidine incorporation)", "setting": "[2]", "value": "antiproliferative"}, {"measurement": "lethal to the cells", "setting": "[2]", "value": "not"}, {"measurement": "growth-inhibitory effect (3H-thymidine incorporation)", "setting": "[3]", "value": "stronger antiproliferative agent than 1,25(OH)2D3"}, {"measurement": "lethal to the cells", "setting": "[3]", "value": "lethal"}, {"measurement": "growth-inhibitory effect (3H-thymidine incorporation)", "setting": "[4]", "value": "stronger antiproliferative agent than 1,25(OH)2D3"}, {"measurement": "lethal to the cells", "setting": "[4]", "value": "lethal"}, {"measurement": "growth-inhibitory effect (3H-thymidine incorporation)", "setting": "[5]", "value": "antiproliferative"}, {"measurement": "lethal to the cells", "setting": "[5]", "value": "not"}, {"measurement": "Body Weight on Day 12", "setting": "[6]; 3.3 μg/kg intraperitoneally", "value": "30.36 ± 1", "unit": "grams"}, {"measurement": "Serum Calcium on day 12", "setting": "[6]; 3.3 μg/kg intraperitoneally", "value": "9.1 ± 0.2"}, {"measurement": "Body Weight On Day 0", "setting": "[6]; 3.3 μg/kg intraperitoneally", "value": "29 ± 0.6", "unit": "grams"}, {"measurement": "Body Weight on Day 12", "setting": "[6]; 33 μg/kg intraperitoneally", "value": "32.9 ± 1.4", "unit": "grams"}, {"measurement": "Serum Calcium on day 12", "setting": "[6]; 33 μg/kg intraperitoneally", "value": "9.4 ± 0.2"}, {"measurement": "Body Weight On Day 0", "setting": "[6]; 33 μg/kg intraperitoneally", "value": "31 ± 0.83", "unit": "grams"}, {"measurement": "Body Weight on Day 12", "setting": "[6]; 166.7 μg/kg intraperitoneally", "value": "30.7 ± 1", "unit": "grams"}, {"measurement": "Serum Calcium on day 12", "setting": "[6]; 166.7 μg/kg intraperitoneally", "value": "9.7 ± 0.1"}, {"measurement": "Body Weight On Day 0", "setting": "[6]; 166.7 μg/kg intraperitoneally", "value": "30.55 ± 0.7", "unit": "grams"}, {"measurement": "toxicity in vivo", "setting": "[6]; mouse, dose as high as 166.7 μg/Kg", "value": "non-toxic"}, {"measurement": "loss of body weight", "setting": "[7]; 13.2 μg i.p. in alternate days for two weeks", "value": "no significant loss of body weight"}, {"measurement": "Hematoxylin-Eosin staining of the tumor sections", "setting": "[7]; 13.2 μg i.p. in alternate days for two weeks, versus vehicle (sesame oil)", "value": "considerably less cellular"}, {"measurement": "condition of the mice at the end of treatment", "setting": "[7]; 25-OH-D3 10 μg or 25-OH-D3-3-BE 13.2 μg (molar equivalent) i.p. in alternate days for two weeks", "value": "viable"}, {"measurement": "DNA fragmentation (apoptosis)", "setting": "PC-3 cells", "value": "DNA fragmentation was observed"}, {"measurement": "Caspase-3 induction", "setting": "caspase-3", "value": "induced"}, {"measurement": "Caspase-8 induction", "setting": "caspase-8", "value": "induced"}, {"measurement": "Caspase-9 induction", "setting": "caspase-9", "value": "induced"}]}
